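Dose response: 5 concentrations. Exposure: 48 h. Format: 96-well plates. Endpoint: linear interpolation; highest concentration if not reached. Here, GI50 denotes the concentration required for 50% inhibition of growth.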 The source made the active and inactive calls. Cut-off read from the data, not from the text of the source: active = GI50 up to about 1.1 µM and inactive = higher.
Columns and labels:
Assay in all cases: inhibition of tumour cell growth, NCI panel, 48 h
[1] = system: A549
[2] = system: OVCAR-8
[3] = system: UACC-257
[4] = system: EKVX
[5] = system: SR
[6] = system: KM12
[7] = system: MOLT-4
[8] = system: SN12C
[9] = system: Malme-3M
[10] = system: COLO 205
[11] = system: OVCAR-3
[12] = system: NCI-H226
[13] = system: SF-268
[14] = system: SNB-19
[15] = system: DMS-273
[16] = system: RPMI-8226
[17] = system: OVCAR-4
[18] = system: K562
[19] = system: M19-MEL
[20] = system: HCT-116
[21] = system: U-251
[22] = system: KM-20L2
[23] = system: SF-295
[24] = system: HT-29
[25] = system: 786-0
[26] = system: HCC 2998
[27] = system: SK-MEL-2
[28] = system: OVCAR-5
[29] = system: RXF 393
[30] = system: UO-31
[31] = system: HCT-15
[32] = system: HOP-92
[33] = system: TK-10
[34] = system: LXFL 529
[35] = system: SK-MEL-28
[36] = system: NCI-H522
[37] = system: ACHN
[38] = system: SNB-78
[39] = system: CAKI-1
[40] = system: NCI-H23
[41] = system: DMS-114
[42] = system: SF-539
[43] = system: SW-620
[44] = system: M14
[45] = system: HOP-18
[46] = system: HL-60
[47] = system: HOP-62
[48] = system: NCI-H460
[49] = system: LOX IMVI

Structure (SMILES): O=c1[nH]c(-c2ccccc2)nc2ccc(Cl)cc12
- GI50 [1]: > 100 µM (inactive)
- GI50 [2]: 43.8 µM (inactive)
- GI50 [3]: 42.4 µM (inactive)
- GI50 [4]: 54.7 µM (inactive)
- GI50 [5]: 85.5 µM (inactive)
- GI50 [6]: 68.5 µM (inactive)
- GI50 [7]: 34 µM (inactive)
- GI50 [8]: 41 µM (inactive)
- GI50 [9]: 48.6 µM (inactive)
- GI50 [10]: > 100 µM (inactive)
- GI50 [11]: 31 µM (inactive)
- GI50 [12]: > 100 µM (inactive)
- GI50 [13]: 28 µM (inactive)
- GI50 [14]: 79.3 µM (inactive)
- GI50 [15]: 45.9 µM (inactive)
- GI50 [16]: 33.2 µM (inactive)
- GI50 [17]: 30.3 µM (inactive)
- GI50 [18]: 26.9 µM (inactive)
- GI50 [19]: 54.3 µM (inactive)
- GI50 [20]: > 100 µM (inactive)
- GI50 [21]: > 100 µM (inactive)
- GI50 [22]: 29.2 µM (inactive)
- GI50 [23]: 73.6 µM (inactive)
- GI50 [24]: 36.8 µM (inactive)
- GI50 [25]: 60.8 µM (inactive)
- GI50 [26]: > 100 µM (inactive)
- GI50 [27]: 47 µM (inactive)
- GI50 [28]: > 100 µM (inactive)
- GI50 [29]: 20 µM (inactive)
- GI50 [30]: 48.1 µM (inactive)
- GI50 [31]: 35.7 µM
- GI50 [32]: 16.5 µM (inactive)
- GI50 [33]: 35.2 µM (inactive)
- GI50 [34]: 29.4 µM (inactive)
- GI50 [35]: 23.4 µM (inactive)
- GI50 [36]: 20.5 µM (inactive)
- GI50 [37]: 73.1 µM (inactive)
- GI50 [38]: 93.8 µM (inactive)
- GI50 [39]: 20.9 µM (inactive)
- GI50 [40]: 77.4 µM (inactive)
- GI50 [41]: > 100 µM (inactive)
- GI50 [42]: > 100 µM (inactive)
- GI50 [43]: 29.4 µM (inactive)

Structure (SMILES): COc1ccc(C(=O)C(C(=O)CCC(=O)Nc2ccc(C)c(C)c2)c2ccc(OC)cc2)cc1 (stereo unspecified)
- GI50 [2]: > 100 µM (inactive)
- GI50 [3]: > 100 µM (inactive)
- GI50 [44]: > 100 µM (inactive)
- GI50 [5]: > 100 µM (inactive)
- GI50 [6]: > 100 µM (inactive)
- GI50 [45]: > 100 µM (inactive)
- GI50 [8]: > 100 µM (inactive)
- GI50 [9]: > 100 µM (inactive)
- GI50 [10]: > 100 µM (inactive)
- GI50 [11]: > 100 µM (inactive)
- GI50 [12]: > 100 µM (inactive)
- GI50 [14]: > 10 µM (inactive)
- GI50 [15]: > 100 µM (inactive)
- GI50 [17]: > 100 µM (inactive)
- GI50 [19]: > 100 µM (inactive)
- GI50 [20]: > 100 µM (inactive)
- GI50 [46]: > 100 µM (inactive)
- GI50 [47]: > 100 µM (inactive)
- GI50 [22]: > 100 µM (inactive)
- GI50 [23]: > 100 µM (inactive)
- GI50 [24]: > 100 µM (inactive)
- GI50 [26]: > 100 µM (inactive)
- GI50 [27]: > 100 µM (inactive)
- GI50 [28]: > 100 µM (inactive)
- GI50 [30]: > 100 µM (inactive)
- GI50 [31]: > 100 µM
- GI50 [48]: > 100 µM (inactive)
- GI50 [32]: 48.9 µM (inactive)
- GI50 [49]: > 100 µM (inactive)
- GI50 [34]: > 100 µM (inactive)
- GI50 [39]: > 100 µM (inactive)
- GI50 [41]: > 100 µM (inactive)
- GI50 [43]: > 100 µM (inactive)
